In PubChem BioAssay AID1259407 (Chemical Carcinogenesis Research Information System (CCRIS), 2018):
Activity calls are given as the source filed them. The rule behind the calls is not given here.

System: CCRIS mutagenicity, Ames/micronucleus/aberration tests
Test: CCRIS mutagenicity studies
Conditions: Test System: AMES SALMONELLA TYPHIMURIUM

For CCN(CC)c1ccc(N=O)c(O)c1, the mutagenic call (Strain/Indicator: TA97, Metabolic Activation: HAMSTER, LIVER, S-9, AROCLOR 1254 (10%), Method: PREINCUBATION) was “inactive; negative”, the mutagenic call (Strain/Indicator: TA97, Metabolic Activation: HAMSTER, LIVER, S-9, AROCLOR 1254 (30%), Method: PREINCUBATION) was “inactive; negative” and the mutagenic call (Strain/Indicator: TA97, Metabolic Activation: NONE, Method: PREINCUBATION) was “inactive; negative”. The mutagenic call (Strain/Indicator: TA97, Metabolic Activation: RAT, LIVER, S-9, AROCLOR 1254 (10%), Method: PREINCUBATION) was “inactive; negative”, the mutagenic call (Strain/Indicator: TA97, Metabolic Activation: RAT, LIVER, S-9, AROCLOR 1254 (30%), Method: PREINCUBATION) was “inactive; negative” and the mutagenic call (Strain/Indicator: TA98, Metabolic Activation: HAMSTER, LIVER, S-9, AROCLOR 1254 (5 OR 10%), Method: PREINCUBATION) was “inactive; negative”. The mutagenic call (Strain/Indicator: TA98, Metabolic Activation: HAMSTER, LIVER, S-9, AROCLOR 1254 (30%), Method: PREINCUBATION) was “inactive; negative”, the mutagenic call (Strain/Indicator: TA98, Metabolic Activation: NONE, Method: PREINCUBATION) was “inactive; negative” and the mutagenic call (Strain/Indicator: TA98, Metabolic Activation: RAT, LIVER, S-9, AROCLOR 1254 (5 OR 10%), Method: PREINCUBATION) was “inactive; negative”. For the same compound, the mutagenic call (Strain/Indicator: TA98, Metabolic Activation: RAT, LIVER, S-9, AROCLOR 1254 (30%), Method: PREINCUBATION) was “inactive; negative”, the mutagenic call (Strain/Indicator: TA100, Metabolic Activation: HAMSTER, LIVER, S-9, AROCLOR 1254 (10%), Method: PREINCUBATION) was “inactive; negative” and the mutagenic call (Strain/Indicator: TA100, Metabolic Activation: HAMSTER, LIVER, S-9, AROCLOR 1254 (30%), Method: PREINCUBATION) was “inactive; negative”. The mutagenic call (Strain/Indicator: TA100, Metabolic Activation: NONE, Method: PREINCUBATION) was “inactive; negative”, the mutagenic call (Strain/Indicator: TA100, Metabolic Activation: RAT, LIVER, S-9, AROCLOR 1254 (10%), Method: PREINCUBATION) was “inactive; negative” and the mutagenic call (Strain/Indicator: TA100, Metabolic Activation: RAT, LIVER, S-9, AROCLOR 1254 (30%), Method: PREINCUBATION) was “inactive; negative”. The mutagenic call (Strain/Indicator: TA1535, Metabolic Activation: HAMSTER, LIVER, S-9, AROCLOR 1254 (10%), Method: PREINCUBATION) was “inactive; negative”, the mutagenic call (Strain/Indicator: TA1535, Metabolic Activation: HAMSTER, LIVER, S-9, AROCLOR 1254 (30%), Method: PREINCUBATION) was “inactive; negative” and the mutagenic call (Strain/Indicator: TA1535, Metabolic Activation: NONE, Method: PREINCUBATION) was “inactive; negative”. For the same compound, the mutagenic call (Strain/Indicator: TA1535, Metabolic Activation: RAT, LIVER, S-9, AROCLOR 1254 (10%), Method: PREINCUBATION) was “inactive; negative”, the mutagenic call (Strain/Indicator: TA1535, Metabolic Activation: RAT, LIVER, S-9, AROCLOR 1254 (30%), Method: PREINCUBATION) was “inactive; negative” and the mutagenic call (Strain/Indicator: TA1537, Metabolic Activation: HAMSTER, LIVER, S-9, AROCLOR 1254 (30%), Method: PREINCUBATION) was “inactive; negative”. The mutagenic call (Strain/Indicator: TA1537, Metabolic Activation: NONE, Method: PREINCUBATION) was “inactive; negative”, the mutagenic call (Strain/Indicator: TA1537, Metabolic Activation: RAT, LIVER, S-9, AROCLOR 1254 (30%), Method: PREINCUBATION) was “inactive; negative” and the mutagenic call (Strain/Indicator: TA1538, Metabolic Activation: HAMSTER, LIVER, S-9, AROCLOR 1254 (10%), Method: PREINCUBATION) was “inactive; negative”. For the same compound, the mutagenic call (Strain/Indicator: TA1538, Metabolic Activation: HAMSTER, LIVER, S-9, AROCLOR 1254 (30%), Method: PREINCUBATION) was “inactive; negative”, the mutagenic call (Strain/Indicator: TA1538, Metabolic Activation: NONE, Method: PREINCUBATION) was “inactive; negative” and the mutagenic call (Strain/Indicator: TA1538, Metabolic Activation: RAT, LIVER, S-9, AROCLOR 1254 (10 OR 30%), Method: PREINCUBATION) was “inactive; negative”.
For Cl/C=C\CCl, the mutagenic call (Strain/Indicator: TA100, Metabolic Activation: NONE, Method: STANDARD PLATE) was “active; positive”, the mutagenic call (Strain/Indicator: TA100, Metabolic Activation: RAT, LIVER, S-9, AROCLOR 1254, Method: STANDARD PLATE) was “active; positive” and the mutagenic call (Strain/Indicator: TA1535, Metabolic Activation: NONE, Method: STANDARD PLATE) was “active; positive”. The mutagenic call (Strain/Indicator: TA1535, Metabolic Activation: RAT, LIVER, S-9, AROCLOR 1254, Method: STANDARD PLATE) was “active; positive”, the mutagenic call (Strain/Indicator: TA1978, Metabolic Activation: NONE, Method: STANDARD PLATE) was “active; positive” and the mutagenic call (Strain/Indicator: TA1978, Metabolic Activation: RAT, LIVER, S-9, AROCLOR 1254, Method: STANDARD PLATE) was “active; positive”.
